Measurements as given in US11866458B2, “Panaxadiol glycoside derivative and preparation method and application thereof” (SUZHOU JI ER BIOLOGICAL MEDICINE CO., LTD., priority 2018, dated 2024).
Marks after values point to notes of the source that are not given here.

Experiments:
[1] = system: mouse asthma model induced by OVA; assay: Asthma induced by ovalbumin in Balb/c mice: IgE level in serum by ELISA; format: in vivo; conditions: oral
[2] = system: inflammatory cells in bronchoalveolar lavage fluid of mice; assay: Determination of inflammatory cells in bronchoalveolar lavage fluid of mice (OVA asthma model); format: in vivo, BALB/C mice; set-up: unit not given here
Method: 144 6-week-old BALB/C mice (18-20 g) were divided into 24 groups: control group, placebo group, dexamethasone group (3 mg/kg) and the drug groups. There were 6 in each group. The control group was given normal saline without any treatment. The other groups were sensitized by intraperitoneal injection of OVA 20 μg and aluminum hydroxide 200 μL PBC (2 mg, prepared into emulsion). […] On day 21, 22 and 23, the therapeutic agent (i.e. 3 mg/kg dexamethasone in the positive control group and oral administration in the drug group) was given orally. From day 17 to 23, PBS was given to the control group and placebo group respectively, PBS (without OVA) was given to the control group. On day 0 and day 14, the normal saline was nebulized for 30 minutes to remove the aluminum hydroxide on day 21, 22 and 23 See in Table 2.

[3] = system: COPD rats induced by smoke exposure; assay: COPD induced by smoke exposure in rats: lung function FEV0.2/FVC; format: in vivo, Wistar rats; conditions: for FEV2/FVC % (FEV0.2/FVC %, forced expiratory index within 200 ms): 180 days; for effect in COPD rats compared with inhaled budesonide: high dose group, oral
ICR mice [4] = assay: Blood routine test after 6 days of intragastric administration; conditions: for WBC: 1 hour after last dose
Method: Mice were intragastric administration for 6 consecutive days, and sufficient blood samples were taken for blood routine test 1 hour after the last dose.

ICR mice [5] = assay: Blood glucose of caudal vein after 6 days of intragastric administration; conditions: for Blood glucose: fasted, caudal vein
Method: The mice were intragastric administration for 6 consecutive days, fasting was started at about 8:00 in the morning on the sixth day, and blood glucose in caudal vein was measured at about 4:00 in the next day.

[6] = after inhalation; cited from earlier work
[7] = Table 1-1 (1st time), 20 mg/kg, 24 hours after last OVA stimulation
[8] = 225 mg/kg, intragastric, 6 days
[9] = 3 mg/kg, oral (positive control)
[10] = 1.8 mg/kg, intragastric, 6 days

Compound	Concentration of IgE in serum [1, 7]	Concentration of IgE in serum ([1]; Table 1-2 (2nd time), 15 mg/kg)	Concentration of IgE in serum ([1]; Table 1-2 (2nd time), 30 mg/kg)	Concentration of IgE in serum ([1]; Table 1-2 (2nd time), 60 mg/kg)	Acidic cells in bronchoalveolar lavage fluid ([2]; 2 mg/kg, oral)	Neutral cells in bronchoalveolar lavage fluid ([2]; 2 mg/kg, oral)	Total inflammatory cells in bronchoalveolar lavage fluid ([2]; 2 mg/kg, oral)	lymphocyte in bronchoalveolar lavage fluid ([2]; 2 mg/kg, oral)	Acidic cells in bronchoalveolar lavage fluid ([2]; 20 mg/kg, oral)	Neutral cells in bronchoalveolar lavage fluid ([2]; 20 mg/kg, oral)	Total inflammatory cells in bronchoalveolar lavage fluid ([2]; 20 mg/kg, oral)	lymphocyte in bronchoalveolar lavage fluid ([2]; 20 mg/kg, oral)	Acidic cells in bronchoalveolar lavage fluid ([2]; 200 mg/kg, oral)	Neutral cells in bronchoalveolar lavage fluid ([2]; 200 mg/kg, oral)	Total inflammatory cells in bronchoalveolar lavage fluid ([2]; 200 mg/kg, oral)	lymphocyte in bronchoalveolar lavage fluid ([2]; 200 mg/kg, oral)	FEV2/FVC % (FEV0.2/FVC %, forced expiratory index within 200 ms) ([3]; 20 mg/kg oral)	FEV2/FVC % (FEV0.2/FVC %, forced expiratory index within 200 ms) ([3]; 40 mg/kg oral)	FEV2/FVC % (FEV0.2/FVC %, forced expiratory index within 200 ms) ([3]; 80 mg/kg oral)	effect in COPD rats compared with inhaled budesonide [3]	also measured
CC(C)=CCC[C@](C)(O[C@H]1OC(CO)[C@@H](O)[C@H](O)C1O)C1CC[C@]2(C)C1C(=O)CC1[C@@]3(C)CC[C@H](O)C(C)(C)C3CC[C@]12C (stereo partly drawn) [ID, 3β-hydroxyl-20(S)—O-α-D-mannopyranosyl dammarane-24-ene-12-one]	1336.96 ± 211.85 ng/mL	1571.67 ± 134.04 ng/mL	1427.83 ± 164.28 ng/mL	1264.95 ± 127.60 ng/mL	34.15 ± 18.88	13.18 ± 7.76	46.39 ± 22.74	14.38 ± 8.71	15.17 ± 8.34	6.26 ± 4.73	29.46 ± 13.56	8.92 ± 6.89	6.79 ± 3.87	4.39 ± 3.13	13.81 ± 6.76	4.16 ± 317	66.28 ± 13.54%	75.23 ± 10.71 %	86.34 ± 8.60 %	superior to budesonide	content of IgE in mice serum (conclusion in words) ([1]; model of mouse asthma induced by OVA, samples): significantly reduce; therapeutic effect on bronchial asthma induced by OVA ([1]; mouse): obvious therapeutic effect
CC(C)=CCC[C@](C)(O[C@@H]1O[C@H](CO)[C@@H](O)[C@H](O)[C@H]1O)[C@H]1CC[C@]2(C)[C@@H]1[C@H](O)C[C@@H]1[C@@]3(C)CC[C@H](O)C(C)(C)[C@@H]3CC[C@]12C [CK, ginsenoside compound K, reference compound]	1701.85 ± 284.66 ng/mL	1921.25 ± 160.12 ng/mL	1676.69 ± 159.13 ng/mL	1501.85 ± 110.68 ng/mL	32.47 ± 20.33	15.24 ± 7.94		16.81 ± 9.88	16.39 ± 9.67	8.78 ± 5.33	24.87 ± 20.58	10.15 ± 7.34	13.12 ± 7.38	4.32 ± 3.16	22.38 ± 12.69	7.42 ± 4.53	61.29 ± 11.76%	70.89 ± 10.56 %	80.24 ± 13.73 %	superior to budesonide	Ba % (ICR mice [4]; [8]): 0.01 ± 0.02%; Eo % (ICR mice [4]; [8]): 0.75 ± 0.71%; Ly % (ICR mice [4]; [8]): 62.54 ± 30.29%; Mo % (ICR mice [4]; [8]): 6.01 ± 8.91%; Ne % (ICR mice [4]; [8]): 31.39 ± 2.72%; hematological related changes (ICR mice [4]; [8]): no hematological related changes; WBC (ICR mice [4]; [8]): 4.96 ± 2.14 10^2/mm^3; blood glucose related changes (ICR mice [5]; [8]): no blood glucose related changes; Blood glucose (ICR mice [5]; [8]): 3.18 ± 0.28 mmol/L
CC(C)=CCC[C@](C)(O[C@@H]1OC(CO)[C@@H](O)[C@H](O)C1O)C1CC[C@]2(C)C1C(=O)CC1[C@@]3(C)CC[C@H](O)C(C)(C)C3CC[C@]12C (stereo partly drawn) [IB, 3β-hydroxyl-20(S)—O-β-D-glucopyranosyl dammarane-24-ene-12-one]	1337.11 ± 216.28 ng/mL	2023.33 ± 203.47 ng/mL	1909.19 ± 121.73 ng/mL	1769.13 ± 164.34 ng/mL	31.19 ± 8.46	12.11 ± 7.22	46.76 ± 25.18	10.07 ± 6.12	9.35 ± 4.16		25.18 ± 13.12	7.53 ± 4.95	5.14 ± 3.08	3.49 ± 2.37	12.53 ± 6.23	3.75 ± 2.18	65.14 ± 12.78%	73.59 ± 10.81 %	82.16 ± 9.01 %	superior to budesonide	
CC(=O)OCC(=O)[C@@]1(O)[C@H](C)C[C@H]2[C@@H]3CCC4=CC(=O)C=C[C@]4(C)[C@@]3(F)[C@@H](O)C[C@@]21C [Dexamethasone acetate tablets, Dexamethasone acetate]																					Concentration of IgE in serum ([1]; Table 1-1 (1st time), 0.6 mg/kg, 24 hours after last OVA stimulation): 1131.05 ± 211.85 ng/mL; Concentration of IgE in serum ([1]; Table 1-2 (2nd time), 0.6 mg/kg): 1367.07 ± 103.80 ng/mL; Acidic cells in bronchoalveolar lavage fluid [2, 9]: 7.49 ± 5.25; Neutral cells in bronchoalveolar lavage fluid [2, 9]: 9.64 ± 5.16; Total inflammatory cells in bronchoalveolar lavage fluid [2, 9]: 36.12 ± 14.89; lymphocyte in bronchoalveolar lavage fluid [2, 9]: 8.46 ± 5.73; leukocyte count compared to blank control group (ICR mice [4]; 1.8 mg/kg): decreased significantly; lymphocyte percentage compared to blank control group (ICR mice [4]; 1.8 mg/kg): decreased significantly; monocyte percentage compared to blank control group (ICR mice [4]; 1.8 mg/kg): increased significantly; neutrophil percentage compared to blank control group (ICR mice [4]; 1.8 mg/kg): increased significantly; Ba % (ICR mice [4]; [10]): 0.04 ± 0.03%; Eo % (ICR mice [4]; [10]): 0.09 ± 0.02%; Ly % (ICR mice [4]; [10]): 42.59 ± 28.17 %; Mo % (ICR mice [4]; [10]): 12.08 ± 6.28 %; Ne % (ICR mice [4]; [10]): 45.17 ± 16.22 %; WBC (ICR mice [4]; [10]): 1.26 ± 0.49** 10^2/mm^3; blood glucose in mice compared with blank control group (ICR mice [5]; 1.8 mg/kg): increase blood glucose; Blood glucose (ICR mice [5]; [10]): 5.78 ± 0.36 mmol/L
CC(C)C(=O)OCC(=O)[C@@]12O[C@H](C3CCCCC3)O[C@@H]1C[C@H]1[C@@H]3CCC4=CC(=O)C=C[C@]4(C)[C@H]3[C@@H](O)C[C@@]12C [ciclesonide]																					bioavailability in vivo [6]: less than 1%
CC(C)=CCC[C@](C)(O[C@@H]1OC(CO)[C@@H](O)[C@H](O)C1O)C1CC[C@]2(C)C1/C(=N\O)CC1[C@@]3(C)CC/C(=N\O)C(C)(C)C3CC[C@]12C (stereo partly drawn) [IVA, 20(S)—O-β-D-glucopyranosyl dammarane-3,12-hydroxyl imino-24-ene-12-one]	1358.27 ± 248.70 ng/mL	2026.13 ± 273.15 ng/mL	1927.60 ± 151.61 ng/mL	1723.86 ± 167.59 ng/mL	29.09 ± 4.83	9.15 ± 5.68		15.35 ± 9.23	15.83 ± 2.88	7.38 ± 3.09	32.46 ± 17.21	5.24 ± 3.34	4.45 ± 2.14	6.17 ± 4.09	14.69 ± 5.77	4.19 ± 3.48	66.25 ± 11.49%	75.98 ± 9.26 %	88.33 ± 12.49 %	superior to budesonide	
